Measured values published in patent US4861788A, “Antibacterial 1-normon-2-yl-heterocyclic compounds” (Beecham Group plc, priority 1983, dated 1989).
≈ marks a conversion by molar mass, not a printed value. Read-outs that look alike come from different tables or passages of the source.

Experiments:
M. hyopneumoniae JF 435 = test: MIC against Mycoplasma in vitro (Friis broth with agarose); type: cell-based; settings: Mesomycoplasma hyopneumoniae, JF435, 144 h; M. hyopneumoniae JF 435; 6 days at 37° C; read-out: MIC
M. hyopneumoniae Str. 11 = test: as above; type: cell-based; settings: Mesomycoplasma hyopneumoniae, 144 h; M. hyopneumoniae Str. 11; 6 days at 37° C; read-out: MIC
[1] = test system: M. hyopneumoniae J2206/183^b; test: as above; type: cell-based; settings: Mesomycoplasma hyopneumoniae, 144 h; M. hyopneumoniae J2206/183^b; 6 days at 37° C; read-out: MIC
M. hyopneumoniae UCD 1 = test: as above; type: cell-based; settings: Mesomycoplasma hyopneumoniae, UCD1, 144 h; M. hyopneumoniae UCD 1; 6 days at 37° C; read-out: MIC
M. hyopneumoniae TAM 6N = test: as above; type: cell-based; settings: Mesomycoplasma hyopneumoniae, TAM6N, 144 h; M. hyopneumoniae TAM 6N; 6 days at 37° C; read-out: MIC
M. hyorhinis ATCC 23234 = test: as above; type: cell-based; settings: Mesomycoplasma hyorhinis, ATCC23234, 144 h; M. hyorhinis ATCC 23234; 6 days at 37° C; read-out: MIC
M. gallisepticum S6 = test: as above; type: cell-based; settings: Mycoplasmoides gallisepticum, 144 h; M. gallisepticum S6; 6 days at 37° C; read-out: MIC
M. pneumoniae ATCC 15492 = test: as above; type: cell-based; settings: Mycoplasmoides pneumoniae, ATCC15492, 144 h; M. pneumoniae ATCC 15492; 6 days at 37° C; read-out: MIC
Bacillus subtilis 6633 = test: MIC against human bacteria in vitro (nutrient agar, chocolated horse blood); type: cell-based; settings: human; Bacillus subtilis 6633; 18 hours at 37° C; read-out: MIC
Experimental: (§1) The activity of the normonyl derivaties of the Examples against various bacteria which are important in diseases of humans, was assayed in vitro using serial dilutions in nurient agar with 5% chocolated horse blood.

[2] = test system: Corynebacterium xerosis 9755; test: as above; type: cell-based
Experimental: as §1

E. coli ESS = test: as above; type: cell-based; settings: Escherichia coli; human; E. coli ESS; 18 hours at 37° C; read-out: MIC
Experimental: as §1

E. coli NCTC 10418 = test: as above; type: cell-based; settings: Escherichia coli
Experimental: as §1

[3] = test system: Haemophilus influenzae Wy21; test: as above; type: cell-based; settings: human; Haemophilus influenzae Wy21; 18 hours at 37° C; read-out: MIC
Experimental: as §1

K. aerogenes A = test: as above; type: cell-based; settings: Klebsiella aerogenes
Experimental: as §1

P. mirabilis 889 = test: as above; type: cell-based
Experimental: as §1

[4] = test system: Pasteurella multocida 1633; test: as above; type: cell-based; settings: human; Pasteurella multocida 1633; 18 hours at 37° C; read-out: MIC
Experimental: as §1

[5] = test system: Ps. aeruginosa NCTC 10662; test: as above; type: cell-based; settings: Pseudomonas aeruginosa
Experimental: as §1

Sarcina lutea 8340 = test: as above; type: cell-based
Experimental: as §1

Staph. aureus Oxford [6] = test: as above; type: cell-based; settings: Staphylococcus aureus; human; Staph. aureus Oxford; 18 hours at 37° C; read-out: MIC
Experimental: as §1

Staph. aureus Russell = test: as above; type: cell-based; settings: Staphylococcus aureus; human; Staph. aureus Russell; 18 hours at 37° C; read-out: MIC
Experimental: as §1

Staph. aureus W2827 = test: as above; type: cell-based; settings: Staphylococcus aureus; human; Staph. aureus W2827; 18 hours at 37° C; read-out: MIC
Experimental: as §1

Strep. agalactiae 2788-B = test: as above; type: cell-based; settings: Streptococcus agalactiae
Experimental: as §1

Strep. faecalis I = test: as above; type: cell-based; settings: Enterococcus faecalis
Experimental: as §1

[7] = test system: Strep. pyogenes R80/421-A; test: as above; type: cell-based; settings: Streptococcus pyogenes
Experimental: as §1

Strep. spp. 64/848-C = test: as above; type: cell-based; settings: human; Strep. spp. 64/848-C; 18 hours at 37° C; read-out: MIC
Experimental: as §1

S. typhimurium S18 = test: MIC against veterinary bacteria in vitro (Diagnostic Sensitivity Test Agar); settings: Salmonella enterica, 18 h
Experimental: (§2) The activity of the normonyl derivatives of the Examples against various veterinarily important bacteria, was assayed in vitro using two-fold serial dilutions in Diagnostic Sensitivity Test Agar inoculated with 10^4 organisms.

Past. haemolytica PA5 = test: as above; settings: Mannheimia haemolytica, PA5, 18 h
Experimental: as §2

[8] = test system: Corynebacterium pyogenes CY1; test: as above; settings: CY1, 18 h
Experimental: as §2

[9] = test system: Staph. aureus B4 (pen. resistant); test: as above; settings: Staphylococcus aureus, 18 h
Experimental: as §2

[10] = test system: Staph. aureus 152 (pen. sens); test: as above; settings: Staphylococcus aureus, 18 h
Experimental: as §2

Staph. aureus Oxford [11] = test: as above; settings: Staphylococcus aureus, 18 h
Experimental: as §2

[12] = test system: Strep. suis (group D) SPS11; test: as above; settings: Streptococcus suis, 18 h
Experimental: as §2

Strep. dysgalactiae SPD1 = test: as above; settings: Streptococcus dysgalactiae, SPD1, 18 h
Experimental: as §2

## CC(=Cc1nnc(-c2ccccc2)o1)CC1OCC(CC2OC2C(C)C(C)O)C(O)C1O (stereo not drawn) [Example 1, 2-(1-Normon-2-yl)-5-phenyl-1,3,4-oxadiazole A]
M. hyopneumoniae JF 435
  MIC: 5 µg/mL (≈ 11.2 µM)
M. hyopneumoniae Str. 11
  MIC: 2.5 µg/mL (≈ 5.62 µM)
[1]
  MIC: 5 µg/mL (≈ 11.2 µM)
M. hyopneumoniae UCD 1
  MIC: 5 µg/mL (≈ 11.2 µM)
M. hyopneumoniae TAM 6N
  MIC: 5 µg/mL (≈ 11.2 µM)
M. hyorhinis ATCC 23234
  MIC: 2.5 µg/mL (≈ 5.62 µM)
M. gallisepticum S6
  MIC: > 10 µg/mL
M. pneumoniae ATCC 15492
  MIC: > 10 µg/mL
Bacillus subtilis 6633
  MIC: 5 µg/mL (≈ 11.2 µM)
[2]; Corynebacterium xerosis, 9755, 18 h
  MIC: > 100 µg/mL
E. coli ESS
  MIC: 10 µg/mL (≈ 22.5 µM)
E. coli NCTC 10418; NCTC10418, 18 h
  MIC: > 100 µg/mL
[3]
  MIC: 2.5 µg/mL (≈ 5.62 µM)
K. aerogenes A; 18 h
  MIC: > 100 µg/mL
P. mirabilis 889; Proteus mirabilis, 889, 18 h
  MIC: > 100 µg/mL
[4]
  MIC: 2.5 µg/mL (≈ 5.62 µM)
[5]; NCTC10662, 18 h
  MIC: > 100 µg/mL
Sarcina lutea 8340; Micrococcus luteus, 8340, 18 h
  MIC: > 100 µg/mL
Staph. aureus Oxford [6]
  MIC: 10 µg/mL (≈ 22.5 µM)
Staph. aureus Russell
  MIC: 25 µg/mL (≈ 56.2 µM)
Staph. aureus W2827
  MIC: 25 µg/mL (≈ 56.2 µM)
Strep. agalactiae 2788-B; 2788B, 18 h
  MIC: 100 µg/mL (≈ 225 µM)
Strep. faecalis I; 18 h
  MIC: > 100 µg/mL
[7]; R80/421A, 18 h
  MIC: 100 µg/mL (≈ 225 µM)
Strep. spp. 64/848-C
  MIC: 25 µg/mL (≈ 56.2 µM)
S. typhimurium S18
  MIC: > 80 µg/mL
Past. haemolytica PA5
  MIC: 10 µg/mL (≈ 22.5 µM)
[8]
  MIC: > 80 µg/mL
[9]
  MIC: 5 µg/mL (≈ 11.2 µM)
[10]
  MIC: 5 µg/mL (≈ 11.2 µM)
Staph. aureus Oxford [11]
  MIC: 5 µg/mL (≈ 11.2 µM)
[12]
  MIC: 80 µg/mL (≈ 180 µM)
Strep. dysgalactiae SPD1
  MIC: 10 µg/mL (≈ 22.5 µM)

## CC(=Cc1nnc(-c2ccc(S(C)(=O)=O)cc2)o1)CC1OCC(CC2OC2C(C)C(C)O)C(O)C1O (stereo not drawn) [Example 4, 2-p-Methylsulphonylphenyl-5-(1-normon-2-yl)-1,3,4-oxadiazole A]
M. hyopneumoniae JF 435
  MIC: 0.25 µg/mL (≈ 0.478 µM)
M. hyopneumoniae Str. 11
  MIC: 0.25 µg/mL (≈ 0.478 µM)
[1]
  MIC: 0.5 µg/mL (≈ 0.957 µM)
M. hyopneumoniae UCD 1
  MIC: 0.25 µg/mL (≈ 0.478 µM)
M. hyopneumoniae TAM 6N
  MIC: 0.5 µg/mL (≈ 0.957 µM)
M. hyorhinis ATCC 23234
  MIC: 0.1 µg/mL (≈ 0.191 µM)
M. gallisepticum S6
  MIC: > 10 µg/mL
M. pneumoniae ATCC 15492
  MIC: > 10 µg/mL
Bacillus subtilis 6633
  MIC: 16 µg/mL (≈ 30.6 µM)
[2]; human, Corynebacterium xerosis 9755, 18 hours at 37° C, read-out: MIC
  MIC: > 64 µg/mL
E. coli ESS
  MIC: 4 µg/mL (≈ 7.65 µM)
E. coli NCTC 10418; NCTC10418, human, E. coli NCTC 10418, 18 hours at 37° C, read-out: MIC
  MIC: > 64 µg/mL
[3]
  MIC: 1 µg/mL (≈ 1.91 µM)
K. aerogenes A; human, K. aerogenes A, 18 hours at 37° C, read-out: MIC
  MIC: > 64 µg/mL
P. mirabilis 889; Proteus mirabilis, human, P. mirabilis 889, 18 hours at 37° C, read-out: MIC
  MIC: > 64 µg/mL
[4]
  MIC: 4 µg/mL (≈ 7.65 µM)
[5]; NCTC10662, human, Ps. aeruginosa NCTC 10662, 18 hours at 37° C, read-out: MIC
  MIC: > 64 µg/mL
Sarcina lutea 8340; Micrococcus luteus, human, Sarcina lutea 8340, 18 hours at 37° C, read-out: MIC
  MIC: > 64 µg/mL
Staph. aureus Oxford [6]
  MIC: 8 µg/mL (≈ 15.3 µM)
Staph. aureus Russell
  MIC: 32 µg/mL (≈ 61.2 µM)
Staph. aureus W2827
  MIC: 32 µg/mL (≈ 61.2 µM)
Strep. agalactiae 2788-B; human, Strep. agalactiae 2788-B, 18 hours at 37° C, read-out: MIC
  MIC: 16 µg/mL (≈ 30.6 µM)
Strep. faecalis I; human, Strep. faecalis I, 18 hours at 37° C, read-out: MIC
  MIC: > 64 µg/mL
[7]; human, Strep. pyogenes R80/421-A, 18 hours at 37° C, read-out: MIC
  MIC: 16 µg/mL (≈ 30.6 µM)
Strep. spp. 64/848-C
  MIC: 16 µg/mL (≈ 30.6 µM)
S. typhimurium S18
  MIC: > 80 µg/mL
Past. haemolytica PA5
  MIC: 20 µg/mL (≈ 38.3 µM)
[8]
  MIC: > 80 µg/mL
[9]
  MIC: 5 µg/mL (≈ 9.57 µM)
[10]
  MIC: 5 µg/mL (≈ 9.57 µM)
Staph. aureus Oxford [11]
  MIC: 10 µg/mL (≈ 19.1 µM)
[12]
  MIC: 80 µg/mL (≈ 153 µM)
Strep. dysgalactiae SPD1
  MIC: 10 µg/mL (≈ 19.1 µM)
